Measurements taken from patent US20160136192A1, “METHODS AND COMPOSITIONS FOR ENHANCING COGNITIVE PERFORMANCE” (ABBOTT LABORATORIES, priority 2013, published 2016).

Tested on: NMDAR dependant hippocampal LTP
Test: NMDAR dependant LTP (fEPSP amplitude) induced by weak tetanus, recorded on hippocampal brain slices in vitro with MEA
Assay type: cell-based, mice
Conditions: mouse hippocampal slices, 10 stimulations at 100 Hz for 0.1 seconds

Row | SMILES | effect on NMDAR dependant hippocampal LTP induced by weak tetanic stimulation (10 micromolar (μM)) | effect on NMDAR dependant hippocampal LTP induced by weak tetanic stimulation (15 micromolar) | effect on NMDAR dependant hippocampal LTP induced by weak tetanic stimulation (20 micromolar (μM)) | effect on NMDAR dependant hippocampal LTP induced by weak tetanic stimulation (30 micromolar (μM)) | effect on NMDAR dependant hippocampal LTP induced by weak tetanic stimulation (40 micromolar) | effect on NMDAR dependant hippocampal LTP induced by weak tetanic stimulation (50 micromolar)
1 | C[N+](C)(C)CCO.[Cl-] [choline chloride, Choline chloride] | did not produce any effect | did not produce any effect | did not produce any effect | significantly enhanced | significantly enhanced | significantly enhanced
2 | CCCCCCCC/C=C\CCCCCCCC(=O)OCC [oleic acid (ethyl ester), Oleic acid ethyl ester] | did not produce any effect |  | significantly enhanced | significantly enhanced |  | 
